# Data: US20240101556A1, “COMPOUNDS AND COMPOSITIONS FOR TREATING CONDITIONS ASSOCIATED WITH STING ACTIVITY” (IFM Due, Inc., priority 2021, published 2024)
# Molecular target: T1, hSTING (Homo sapiens, UniProt Q86WV6, G230A/H232R/R293Q/R71H)
# T1 construct: host or cells: THP1-Dual KO-IFNAR2 cells (human monocytic line)
# Test: STING reporter assay (luciferase) in THP1-Dual KO-IFNAR2 cells stimulated with 2′3′cGAMP
# Type: cell-based
# Details: 2′3′cGAMP 15 μM with Lipofectamine 2000, 24 h, luciferase reporter activity, compounds 0.0017-100 μM
# Procedure: STING pathway activation by the compounds described herein was measured using THP1-Dual™ cells (KO-IFNAR2).
# THP1-Dual™ KO-IFNAR2 Cells (obtained from invivogen) were maintained in RPMI, 10% FCS, 5 ml P/S, 2 mM L-glut, 10 mM Hepes, and 1 mM sodium pyruvate. Compounds were spotted in empty 384 well tissue culture plates (Greiner 781182) by Echo for a final concentration of 0.0017-100 μM. Cells were plated into the TC plates at 40 μL per well, 2×10E6 cells/mL. For activation with STING ligand, 2′3′cGAMP (MW 718.38, obtained from Invivogen), was prepared in Optimem media.
# The following solutions were prepared for each 1×384 plate: • Solution A: 2 mL Optimem with one of the following stimuli: • 60 μL of 10 mM 2′3′cGAMP→150 μM stock • Solution B: 2 mL Optimem with 60 μL Lipofectamine 2000→Incubate 5 min at RT
# 2 mL of solution A and 2 m1 Solution B was mixed and incubated for 20 min at room temperature (RT). 20 μL of transfection solution (A+B) was added on top of the plated cells, with a final 2′3′cGAMP concentration of 15 μM. The plates were then centrifuged immediately at 340 g for 1 minute, after which they were incubated at 37° C., 5% CO2, >98% humidity for 24 h. Luciferase reporter activity was then measured. EC50 values were calculated by using standard methods known in the art.
# Luciferase reporter assay: 10 μL of supernatant from the assay was transferred to white 384-plate with flat bottom and squared wells. One pouch of QUANTI-Luc™ Plus was dissolved in 25 mL of water. 100 μL of QLC Stabilizer per 25 mL of QUANTI-Luc™ Plus solution was added. 50 μL of QUANTI-Luc™ Plus/QLC solution per well was then added. Luminescence was measured on a Platereader (e.g., Spectramax I3X (Molecular Devices GF3637001)).
# Luciferase reporter activity was then measured. EC50 values were calculated by using standard methods known in the art.
# T1 sequence (Q86WV6 whole entry R71H/G230A/H232R/R293Q): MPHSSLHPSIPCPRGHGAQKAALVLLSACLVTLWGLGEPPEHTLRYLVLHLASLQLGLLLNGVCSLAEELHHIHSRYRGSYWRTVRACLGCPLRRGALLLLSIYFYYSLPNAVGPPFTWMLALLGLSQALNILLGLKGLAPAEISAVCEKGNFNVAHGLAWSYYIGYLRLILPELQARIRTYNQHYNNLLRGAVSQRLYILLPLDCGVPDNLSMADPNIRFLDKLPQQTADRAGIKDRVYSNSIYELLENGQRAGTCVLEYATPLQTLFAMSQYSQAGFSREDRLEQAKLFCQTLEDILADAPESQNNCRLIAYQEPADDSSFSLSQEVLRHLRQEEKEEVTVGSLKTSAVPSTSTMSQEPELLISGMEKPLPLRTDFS
row,SMILES,EC50
1,"CC(C)OC1CCC(N2CCN(c3ccc4[nH]cc(NC(=O)Nc5ccc(C(F)(F)F)cc5)c4n3)CC2)CC1 (stereo not shown) [Compound 113, 3-(5-{4-[4-(propan-2-yloxy)cyclohexyl]piperazin-1-yl}-1H-pyrrolo[3,2-b]pyridin-3-yl)-1-[4-(trifluoromethyl)phenyl]urea]",5 to 100 µM
2,"CC(CC(F)(F)F)N1CCN(c2ccc3[nH]cc(NC(=O)Nc4ccc(C(F)(F)F)cc4)c3n2)CC1 (stereo not shown) [Compound 114, 3-{5-[4-(4,4,4-trifluorobutan-2-yl)piperazin-1-yl]-1H-pyrrolo[3,2-b]pyridin-3-yl}-1-[4-(trifluoromethyl)phenyl]urea]",5 to 100 µM
3,"O=C(Nc1ccc(C(F)(F)F)cc1)Nc1c[nH]c2ccc(N3CCN(C4CCC(C(F)(F)F)CC4)CC3)nc12 (stereo not shown) [Compound 115, 3-(5-{4-[4-(trifluoromethyl)cyclohexyl]piperazin-1-yl}-1H-pyrrolo[3,2-b]pyridin-3-yl)-1-[4-(trifluoromethyl)phenyl]urea]",5 to 100 µM
4,"O=C(Nc1ccc(C(F)(F)F)cc1)Nc1c[nH]c2ccc(N3CCN(C4CCC(F)(F)CC4)CC3)nc12 [Compound 116, 3-{5-[4-(4,4-difluorocyclohexyl)piperazin-1-yl]-1H-pyrrolo[3,2-b]pyridin-3-yl}-1-[4-(trifluoromethyl)phenyl]urea]",5 to 100 µM
5,"O=C(Nc1ccc(C(F)(F)F)cc1)Nc1c[nH]c2ccc(N3CCN(CC(F)(F)F)CC3)nc12 [Compound 118, 1-(5-(4-(2,2,2-trifluoroethyl)piperazin-1-yl)-1H-pyrrolo[3,2-b]pyridin-3-yl)-3-(4-(trifluoromethyl)phenyl)urea]",5 to 100 µM
6,"O=C(Nc1ccc(C(F)(F)F)cc1)Nc1c[nH]c2ccc(N3CCN(CCC(F)(F)F)CC3)nc12 [Compound 123, 1-[4-(trifluoromethyl)phenyl]-3-{5-[4-(3,3,3-trifluoropropyl)piperazin-1-yl]-1H-pyrrolo[3,2-b]pyridin-3-yl}urea]",5 to 100 µM
7,"CN1CCN(c2ccc3[nH]cc(NC(=O)Nc4ccc(C(F)(F)F)cc4)c3n2)CC1 [Compound 125, 1-(5-(4-methylpiperazin-1-yl)-1H-pyrrolo[3,2-b]pyridin-3-yl)-3-(4-(trifluoromethyl)phenyl)urea]",5 to 100 µM
8,"CCN1CCN(c2ccc3[nH]cc(NC(=O)Nc4ccc(C(F)(F)F)c(Cl)c4)c3n2)CC1 [Compound 126, 1-(3-chloro-4-(trifluoromethyl)phenyl)-3-(5-(4-ethylpiperazin-1-yl)-1H-pyrrolo[3,2-b]pyridin-3-yl)urea]",5 to 100 µM
9,"CC(C)(C)OC(=O)N1CCN(c2ccc3[nH]cc(NC(=O)Nc4ccc(C(F)(F)F)cc4)c3n2)CC1 [Compound 128, tert-butyl 4-(3-(3-(4-(trifluoromethyl)phenyl)ureido)-1H-pyrrolo[3,2-b]pyridin-5-yl)piperazine-1-carboxylate]",5 to 100 µM
10,"CC(C)c1cnn(-c2ccc3[nH]cc(NC(=O)Nc4ccc(C(F)(F)F)cc4)c3n2)c1 [Compound 131, 1-(5-(4-isopropyl-1H-pyrazol-1-yl)-1H-pyrrolo[3,2-b]pyridin-3-yl)-3-(4-(trifluoromethyl)phenyl)urea]",5 to 100 µM
11,"CC(C)c1ccn(-c2ccc3[nH]cc(NC(=O)Nc4ccc(C(F)(F)F)cc4)c3n2)n1 [Compound 132, 1-(5-(3-isopropyl-1H-pyrazol-1-yl)-1H-pyrrolo[3,2-b]pyridin-3-yl)-3-(4-(trifluoromethyl)phenyl)urea]",5 to 100 µM

# Other lines, results leading:
row,EC50,SMILES
1,5 to 100 µM,"O=C(Nc1ccc(C(F)(F)F)cc1)Nc1c[nH]c2ccc(N3CCN(CC4CC4)CC3)nc12 [Compound 117, 3-{5-[4-(cyclopropylmethyl)piperazin-1-yl]-1H-pyrrolo[3,2-b]pyridin-3-yl}-1-[4-(trifluoromethyl)phenyl]urea]"
2,1 to 5 µM,"O=C(Nc1ccc(C(F)(F)F)cc1)Nc1c[nH]c2ccc(N3CCN(Cc4cccnc4)CC3)nc12 [Compound 119, 3-(5-{4-[(pyridin-3-yl)methyl]piperazin-1-yl}-1H-pyrrolo[3,2-b]pyridin-3-yl)-1-[4-(trifluoromethyl)phenyl]urea]"
3,5 to 100 µM,"O=C(Nc1ccc(C(F)(F)F)cc1)Nc1c[nH]c2ccc(N3CCN(Cc4ccccn4)CC3)nc12 [Compound 120, 3-(5-{4-[(pyridin-2-yl)methyl]piperazin-1-yl}-1H-pyrrolo[3,2-b]pyridin-3-yl)-1-[4-(trifluoromethyl)phenyl]urea]"
4,5 to 100 µM,"O=C(Nc1ccc(C(F)(F)F)cc1)Nc1c[nH]c2ccc(N3CCN(Cc4ccccc4)CC3)nc12 [Compound 121, 3-[5-(4-benzylpiperazin-1-yl)-1H-pyrrolo[3,2-b]pyridin-3-yl]-1-[4-(trifluoromethyl)phenyl]urea]"
5,5 to 100 µM,"COCCN1CCN(c2ccc3[nH]cc(NC(=O)Nc4ccc(C(F)(F)F)cc4)c3n2)CC1 [Compound 122, 3-{5-[4-(2-methoxyethyl)piperazin-1-yl]-1H-pyrrolo[3,2-b]pyridin-3-yl}-1-[4-(trifluoromethyl)phenyl]urea]"
6,5 to 100 µM,"CC(C)CN1CCN(c2ccc3[nH]cc(NC(=O)Nc4ccc(C(F)(F)F)cc4)c3n2)CC1 [Compound 124, 3-{5-[4-(2-methylpropyl)piperazin-1-yl]-1H-pyrrolo[3,2-b]pyridin-3-yl}-1-[4-(trifluoromethyl)phenyl]urea]"
7,5 to 100 µM,"CCN1CCN(c2ccc3[nH]cc(NC(=O)Nc4ccc(C(F)(F)F)cc4)c3n2)CC1 [Compound 127, 1-(5-(4-ethylpiperazin-1-yl)-1H-pyrrolo[3,2-b]pyridin-3-yl)-3-(4-(trifluoromethyl)phenyl)urea]"
8,0.2 to 1 µM,"O=C(Nc1ccc(C(F)(F)F)cc1)Nc1c[nH]c2ccc(N3CCN(c4ccccc4)CC3)nc12 [Compound 129, 1-(5-(4-phenylpiperazin-1-yl)-1H-pyrrolo[3,2-b]pyridin-3-yl)-3-(4-(trifluoromethyl)phenyl)urea]"
